According to patent US9963448B2, “Bicyclic inhibitors of PAD4” (Padlock Therapeutics, Inc., priority 2015, dated 2018):
Like-named read-outs stand apart in the source and are kept apart here.

Tests used:
hPAD4 = hPAD4 (Homo sapiens, UniProt Q9UM07); test: hPAD4 RFMS (RapidFire mass spectrometry) PAD4 inhibition assay; format: biochemical; conditions: hPAD4 enzyme, RFMS readout;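 for hPAD4 RFMS pIC50: grade E means pIC50 at most 4 and F means pIC50 4.0 to 5.0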
Protocol: (§1) Compounds of the present invention were assayed as inhibitors of PAD4 using the assay protocol described below.
(§2) Compound stock solutions were stored at RT. […] Final assay conditions were as follows:
(§3) Total incubation time: 65 mins at 37° C.
(§4) Stop solution: 40 μl 5% TCA in ACN
(§5) The compound numbers correspond to the compound numbers in Table 1. […] The term pIC50=−log(IC50). […] “NA” stands for “not assayed.”

mPAD4 = mPAD4 (Mus musculus, UniProt Q9Z183); test: mPAD4 RFMS PAD4 inhibition assay; format: biochemical; conditions: mPAD4, RFMS readout;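 for mPAD4 RFMS pIC50: grade E means pIC50 at most 4 and F means pIC50 4.0 to 5.0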
Sequence of mPAD4 (Q9Z183 whole entry): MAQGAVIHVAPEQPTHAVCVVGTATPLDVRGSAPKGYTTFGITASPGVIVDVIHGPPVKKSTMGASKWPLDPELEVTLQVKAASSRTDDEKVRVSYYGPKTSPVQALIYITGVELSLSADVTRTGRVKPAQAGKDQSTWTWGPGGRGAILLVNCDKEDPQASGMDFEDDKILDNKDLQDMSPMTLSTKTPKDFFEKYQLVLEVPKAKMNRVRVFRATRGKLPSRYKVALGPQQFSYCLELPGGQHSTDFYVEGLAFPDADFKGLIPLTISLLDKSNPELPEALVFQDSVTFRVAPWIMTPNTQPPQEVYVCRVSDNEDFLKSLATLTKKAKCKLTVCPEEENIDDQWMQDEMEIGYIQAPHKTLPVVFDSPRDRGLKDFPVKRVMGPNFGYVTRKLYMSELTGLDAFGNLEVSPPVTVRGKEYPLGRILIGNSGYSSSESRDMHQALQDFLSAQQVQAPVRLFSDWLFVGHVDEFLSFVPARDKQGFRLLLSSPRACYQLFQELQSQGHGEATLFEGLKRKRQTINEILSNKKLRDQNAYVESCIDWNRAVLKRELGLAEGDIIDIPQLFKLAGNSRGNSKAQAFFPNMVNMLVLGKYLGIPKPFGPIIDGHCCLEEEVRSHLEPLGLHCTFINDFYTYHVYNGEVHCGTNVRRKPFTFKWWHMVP
Protocol: as §1, §2, §3, §4, §5

[1] = pIC50=−log(IC50), read-out: mPAD4 RFMS pIC50 (converted)
[2] = pIC50=−log(IC50), read-out: hPAD4 RFMS pIC50 (converted)

Sequence of hPAD4 (Q9UM07 whole entry): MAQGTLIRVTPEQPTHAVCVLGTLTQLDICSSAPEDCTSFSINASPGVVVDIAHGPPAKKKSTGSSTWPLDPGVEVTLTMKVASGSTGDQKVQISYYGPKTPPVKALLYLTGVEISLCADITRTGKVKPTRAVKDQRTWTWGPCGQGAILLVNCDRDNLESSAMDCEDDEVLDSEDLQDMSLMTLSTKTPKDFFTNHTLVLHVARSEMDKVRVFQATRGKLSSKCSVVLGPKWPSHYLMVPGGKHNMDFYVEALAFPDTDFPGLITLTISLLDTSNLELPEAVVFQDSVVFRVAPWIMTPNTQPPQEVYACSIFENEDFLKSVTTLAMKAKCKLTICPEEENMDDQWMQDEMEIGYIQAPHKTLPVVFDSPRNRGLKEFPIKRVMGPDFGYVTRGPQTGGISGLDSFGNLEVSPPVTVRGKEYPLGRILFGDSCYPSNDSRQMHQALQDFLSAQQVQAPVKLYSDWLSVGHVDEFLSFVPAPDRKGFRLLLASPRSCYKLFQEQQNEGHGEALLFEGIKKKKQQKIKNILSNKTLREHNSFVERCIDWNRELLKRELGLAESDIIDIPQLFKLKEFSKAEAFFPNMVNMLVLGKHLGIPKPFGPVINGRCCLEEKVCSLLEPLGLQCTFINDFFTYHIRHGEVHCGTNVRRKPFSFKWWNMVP

hPAD4 RFMS pIC50 (hPAD4; pIC50=−log(IC50)) | IC50 (hPAD4; read-out: hPAD4 RFMS IC50) [µM] | IC50 (mPAD4; [1]) [µM] | IC50 (mPAD4; read-out: mPAD4 RFMS IC50) [µM] | IC50 (hPAD4; [2]) [µM] | mPAD4 RFMS pIC50 (mPAD4; pIC50=−log(IC50)) | Compound
E/F | > 10 | > 100 | > 10 | – | – | COc1cc(C(=O)N2CCOC3(CNC3)C2)cc2nc(-c3cc4cccnc4n3CC3CC3)n(C)c12 [Compound I-122]
– | < 1 | < 1 | < 1 | < 1 | – | COc1ccc2cc(-c3nc4cc(C(=O)N5C[C@H](N)C[C@@H](F)C5)cc(OC)c4n3C)n(CC3CC3)c2n1 [Compound I-123]
– | > 10 | 1 to 10 | 5 to 10 | 10 to 100 | – | CO[C@@H]1CCN(C(=O)c2cc(OC(F)F)c3c(c2)nc(-c2cc4cccnc4n2CC2CC2)n3C)C[C@@H]1N [Compound I-124]
– | > 10 | 10 to 100 | > 10 | 10 to 100 | – | COc1cc(C(=O)N2C[C@H]3COC[C@@]3(CN)C2)cc2nc(-c3cc4cccnc4n3CC3CC3)n(C)c12 [Compound I-125]
– | > 10 | 10 to 100 | > 10 | 10 to 100 | – | COc1cc(C(=O)N2C[C@@H]3COC[C@]3(CN)C2)cc2nc(-c3cc4cccnc4n3CC3CC3)n(C)c12 [Compound I-126]
– | 1 to 5 | 1 to 10 | 1 to 5 | 1 to 10 | – | COc1ccc2cc(-c3nc4cc(C(=O)N5CC[C@@H](OC)[C@@H](N)C5)ccc4n3C)n(CC3CC3)c2n1 [Compound I-127]
– | 1 to 5 | 1 to 10 | 1 to 5 | 1 to 10 | – | Cn1c(-c2cc3cccnc3n2CC2CC2)nc2cc(C(=O)N3CCC[C@@H](N)C3)cc(CO)c21 [Compound I-128, {5-[(3R)-3-aminopiperidine-1-carbonyl]-2-[1-(cyclopropylmethyl)-1H-pyrrolo[2,3-b]pyridin-2-yl]-1-methyl-1H-1,3-benzodiazol-7-yl}methanol]
– | 1 to 5 | 1 to 10 | 1 to 5 | 1 to 10 | – | COc1cc(C(=O)N2CC3CCC2C(N)C3)cc2nc(-c3cc4cccnc4n3CC3CC3)n(C)c12 (stereo not shown) [Compound I-129]
– | < 1 | 1 to 10 | 1 to 5 | < 1 | – | COc1ccc2cc(-c3nc4cc(C(=O)N5CC[C@H](OC)[C@H](N)C5)ccc4n3C)n(CC3CC3)c2n1 [Compound I-130]
– | 5 to 10 | 10 to 100 | > 10 | 1 to 10 | – | Cn1c(-c2cc3cccnc3n2CC2CC2)nc2cc(C(=O)N3CCC[C@@H](N)C3)cc(S(C)(=O)=O)c21 [Compound I-131, (3R)-1-{2-[1-(cyclopropylmethyl)-1H-pyrrolo[2,3-b]pyridin-2-yl]-7-methanesulfonyl-1-methyl-1H-1,3-benzodiazole-5-carbonyl}piperidin-3-amine]
– | < 1 | 1 to 10 | 1 to 5 | < 1 | – | COc1cc(C(=O)N2CCC[C@@H](N)C2)cc2nc(-c3cc4cc(C#N)cnc4n3CC3CC3)n(C)c12 [Compound I-132]
F (pIC50 of 4.0-5.0) | > 10 | – | 1 to 5 | – | G (pIC50 of 5.0-6.0) | CO[C@@H]1CCN(C(=O)c2cc(OC(F)F)c3c(c2)nc(-c2cc4cccnc4n2CC2CC2)n3C)C[C@@H]1N [Compound I-133]
– | 1 to 5 | < 1 | < 1 | 1 to 10 | – | CO[C@H]1CCN(C(=O)c2cc(OC(F)F)c3c(c2)nc(-c2cc4cccnc4n2CC2CC2)n3C)C[C@H]1N [Compound I-134]
– | < 1 | < 1 | < 1 | < 1 | – | CCn1c(-c2nc3cc(C(=O)N4CCC[C@@H](N)C4)cc(OC)c3n2C)cc2ccc(OC)nc21 [Compound I-135]
– | 1 to 5 | 1 to 10 | 1 to 5 | 1 to 10 | – | COCCn1c(-c2nc3cc(C(=O)N4CCC[C@@H](N)C4)cc(OC)c3n2C)cc2cccnc21 [Compound I-137]
– | < 1 | < 1 | < 1 | < 1 | – | CCn1c(-c2nc3cc(C(=O)N4C[C@@H](N)CC[C@H]4C)cc(OC)c3n2C)cc2cccnc21 [Compound I-138]
